Test [1] addresses T1, wild type PKR (Homo sapiens, UniProt P30613). Kind of test: PKR mutant assay (AC50), wild type PKR. As to conditions: wild type PKR enzyme; read-out: PKR WT AC50. The class given is biochemical. How it is done: (§1) Example 11. PKR Mutant Assay
(§2) PKR or PKR mutant enzyme solution was diluted into a reaction mix, which contains 1× buffer (100 mM KCl, 50 mM Tris pH 7.5, 5 mM MgCl2) as well as PEP (cont depends on enzyme), 180 μM NADH, 0.5 units LDH, 1 mM DTT, 0.03% BSA; final assay concentrations after 1.11 fold dilution are indicated.
(§3) 2 μL of test compound was added into wells first, and then 180 μL reaction mix was added.
(§4) Reactions mixture with test compound was assembled except for ADP, and plates were stored for 60 minutes at room temperature.
(§5) 20 uL ADP was added to start reaction at room temperature and reaction progress was measured as changes in absorbance at 340 nm wavelength at room temperature.
(§6) Test Compound Preparation:
(§7) Test compound stock was made at 100× concentration in 100% DMSO (10 mM)
(§8) 1 to 3 dilutions were made for 11 points (i.e. 50 μl of first concentration added to 100 μl 100% DMSO to yield 3.33 mM, 50 μl of this added to 100 μl DMSO to yield 1.11 mM, and so forth) • 1 to 100 dilution into assay (2 μl in 200 μl) yielded starting concentration of 100 μM, decreasing 3 fold for 11 points.
(§9) Assay Buffer: 100 mM KCl, 50 mM Tris 7.5, 5 mM MgCl2, 1 ruM DTT, 0.03% BSA
(§10) Reaction Mixture: PKR mutant enzyme: 40-400 ng/well; ADP: 0.2-1.65 mM; PEP: 0.1-0.5 mM; NADH:180 μM; LDH: 0.5 units (Sigma #59023); DTT: 1 mM; BSA: 0.03%.

A further test concerns the target PKR K410E (Homo sapiens, UniProt P30613, K410E). Description: PKR mutant assay (AC50), PKR K410E. The class given is biochemical. As to conditions: PKR K410E mutant enzyme. How it is done:
as §1, §2, §3, §4, §5, §6, §7, §8, §9, §10

The target in another test is PKR R510Q (Homo sapiens, UniProt P30613, R510Q). Description: PKR mutant assay (AC50), PKR R510Q. The class given is biochemical. The following applies: PKR R510Q mutant enzyme; read-out: PK R510Q AC50. As for the experimental part: as §1, §2, §3, §4, §5, §6, §7, §8, §9, §10
Chain of PKR R510Q (P30613 whole entry R510Q): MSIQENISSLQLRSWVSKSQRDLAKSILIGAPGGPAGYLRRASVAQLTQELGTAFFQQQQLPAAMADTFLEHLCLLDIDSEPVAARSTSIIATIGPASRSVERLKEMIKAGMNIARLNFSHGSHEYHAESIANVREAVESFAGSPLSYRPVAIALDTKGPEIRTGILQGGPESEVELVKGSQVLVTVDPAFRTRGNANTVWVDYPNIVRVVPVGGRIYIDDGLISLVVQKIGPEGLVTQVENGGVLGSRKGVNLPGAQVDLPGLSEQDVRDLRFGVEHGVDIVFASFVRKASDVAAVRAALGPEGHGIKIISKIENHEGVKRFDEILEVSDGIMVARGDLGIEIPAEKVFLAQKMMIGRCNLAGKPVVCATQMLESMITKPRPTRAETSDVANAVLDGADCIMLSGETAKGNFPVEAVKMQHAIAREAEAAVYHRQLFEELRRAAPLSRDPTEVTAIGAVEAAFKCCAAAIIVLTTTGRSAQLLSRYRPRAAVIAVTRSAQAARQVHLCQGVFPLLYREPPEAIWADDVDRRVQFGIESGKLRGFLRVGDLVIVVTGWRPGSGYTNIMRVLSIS
Test [2] has as its target T1, wild type PKR. Kind of test: Cell based ATP assay in purified red blood cells. Further details: endogenous in cells; host or cells: purified red blood cells from blood of healthy volunteers. As to conditions: RBCs, overnight at 37° C., ATP levels by Cell-Titer-Glo. As for the experimental part:
Example 16. Red Blood Cell (RBC) Purification
Fresh blood drawn from healthy volunteers into K2EDTA tubes was collected. Whole blood was pelleted by spinning at 500 g for 10 minutes. Cut transfusion bag port off of Purecell leukocyte reduction neofilter (Fisher NCO267633) one (1) inch above filter. Attach a 10 ml syringe barrel to the remaining cut tubing attached to neofilter. The plasma layer was removed from the pellet of the whole blood and the pellet was resuspended in 2× volume of phosphate buffered saline (PBS). Transfer 9 ml re-suspended blood cell pellet to prepared 10 ml syringe that is attached to the neofilter. Allow whole blood to gravity flow through filter until all fluid runs through upper tubing into filter disc. Add plunger to the syringe, remove syringe from clamp and invert the filter, then plunge air through the syringe filter system. Using a new 5 ml syringe, remove filtered RBCs from the bag by the syringe port and transfer purified RBCs to a 5 ml snap cap tube that has been incubated on ice. Spin 5 ml snap cap tube at 500 g for 10 minutes at 15 C, aspirate supernatant and resuspend in AGAM (1×PBS, 1% glucose, 170 mg/L adenine, 5.25 g/L mannitol) at a density of 4×10^9 cells/mL.
Example 17. Cell Based ATP Assay
For cell based ATP assays, the compound as described herein was prepared in 100% DMSO as a 10 mM stock. Serial dilutions (1:4) were performed in 96-well V-bottom storage plate and then added 1:100 to 96-well V-bottom plates containing AGAM. RBCs were diluted in AGAM media to a density of 1×10^7 cells/mL before added 90 μL/well to black clear bottom assay plates (final compound concentration at 0.1% DMSO concentration). Assay plates were sealed using aluminum foil seals and incubated overnight at 37° C. in a humidified chamber. ATP levels were read out using Cell-Titer-Glo (Promega).

T1 sequence (P30613 whole entry): as the sequence (P30613 whole entry R510Q) above, with Q510R counted along it
Chain of PKR K410E (P30613 whole entry K410E): as the sequence (P30613 whole entry R510Q) above, with K410E, Q510R counted along it

For `Cn1c2nc(Cn3cc[nH]c3=O)sc2c2cnn(Cc3cc[nH]n3)c(=O)c21`, the AC50 on wild type PKR [1] is less than 300 nM; on PKR K410E it was less than 300 nM; at PKR R510Q, less than 300 nM; at wild type PKR [2], no more than 1000 nM.
As for `Cn1c2nc(Cc3cc[nH]n3)sc2c2cnn(Cc3ccc[nH]c3=O)c(=O)c21`, the AC50 on wild type PKR [1] is less than 300 nM; at PKR K410E it was less than 300 nM; at PKR R510Q it was less than 300 nM; at wild type PKR [2] it was no more than 1000 nM.
Regarding `COc1ncccc1Cn1ncc2c3sc(Cc4cc[nH]n4)nc3n(C)c2c1=O`, the AC50 at wild type PKR [1] was less than 300 nM; at PKR K410E, less than 300 nM; on PKR R510Q it was less than 300 nM; on wild type PKR [2] it was no more than 1000 nM.
In the case of `CC(=O)Nc1ccc(F)c(Cn2ncc3c4sc(Cc5cc[nH]n5)nc4n(C)c3c2=O)n1`, the concentration at half-maximal activity (AC50) is greater than 800 nM at wild type PKR [1], greater than 800 nM on PKR K410E, less than 300 nM at PKR R510Q and greater than 1000 nM at wild type PKR [2].
`COc1ccc(Cn2ncc3c4sc(Cc5cc[nH]n5)nc4n(C)c3c2=O)cn1`: the AC50 at wild type PKR [1] is less than 300 nM; at PKR K410E, less than 300 nM; at PKR R510Q, less than 300 nM; on wild type PKR [2], no more than 1000 nM.
For the molecule `COc1cc(Cn2ncc3c4sc(Cc5cc[nH]n5)nc4n(C)c3c2=O)ccn1`, the AC50 is less than 300 nM at wild type PKR [1], less than 300 nM at PKR K410E, less than 300 nM at PKR R510Q and no more than 1000 nM at wild type PKR [2].
Regarding `CNc1ccc(F)c(Cn2ncc3c4sc(Cc5cc[nH]n5)nc4n(C)c3c2=O)n1`, the AC50 was less than 300 nM at wild type PKR [1], less than 300 nM at PKR K410E, less than 300 nM at PKR R510Q and no more than 1000 nM at wild type PKR [2].
Regarding `CNc1ccc(F)c(Cc2nc3c(s2)c2cnn(Cc4c[nH]nn4)c(=O)c2n3C)n1`, the AC50 is less than 300 nM on wild type PKR [1], less than 300 nM on PKR K410E, less than 300 nM on PKR R510Q and no more than 1000 nM at wild type PKR [2].
Consider `Cn1c2nc(Cc3n[nH]cc3F)sc2c2cnn(Cc3n[nH]cc3F)c(=O)c21`, for which the AC50 on wild type PKR [1] was less than 300 nM; on PKR K410E, less than 300 nM; on PKR R510Q, less than 300 nM; on wild type PKR [2], no more than 1000 nM.
As for `COc1cccc(Cn2ncc3c4sc(Cc5cc[nH]n5)nc4n(C)c3c2=O)n1`, the AC50 on wild type PKR [1] was less than 300 nM; at PKR K410E, less than 300 nM; at PKR R510Q, less than 300 nM; at wild type PKR [2], no more than 1000 nM.
As for `Cn1c2nc(Cc3cc[nH]n3)sc2c2cnn(Cc3cccc(NO)n3)c(=O)c21`, the AC50 is less than 300 nM on wild type PKR [1], less than 300 nM at PKR K410E, less than 300 nM on PKR R510Q and no more than 1000 nM at wild type PKR [2].
`Cn1c2nc(Cc3cc[nH]n3)sc2c2cnn(Cc3cc(F)cc(N)n3)c(=O)c21`: the AC50 on wild type PKR [1] was less than 300 nM; on PKR K410E, less than 300 nM; on PKR R510Q it was less than 300 nM; on wild type PKR [2], no more than 1000 nM.
Consider `Cc1ccc(Cn2ncc3c4sc(Cc5cc[nH]n5)nc4n(C)c3c2=O)nc1N`, for which the AC50 is less than 300 nM at wild type PKR [1], less than 300 nM at PKR K410E, less than 300 nM on PKR R510Q and no more than 1000 nM at wild type PKR [2].
As for `Cn1c2nc(Cc3ccccn3)sc2c2cnn(Cc3ccccn3)c(=O)c21`, the concentration at half-maximal activity (AC50) at wild type PKR [1] was less than 300 nM; at PKR K410E, less than 300 nM; on PKR R510Q, 301 to 800 nM; at wild type PKR [2], no more than 1000 nM.
Turning to `Cn1c2nc(Cc3cc[nH]n3)sc2c2cnn(Cc3cccc(=O)[nH]3)c(=O)c21`, the AC50 on wild type PKR [1] was less than 300 nM; on PKR K410E it was less than 300 nM; on PKR R510Q, 301 to 800 nM; at wild type PKR [2], greater than 1000 nM.
On to `Cn1c2nc(Cc3n[nH]cc3F)sc2c2cnn(Cc3c[nH]nn3)c(=O)c21`, for which the AC50 on wild type PKR [1] was less than 300 nM; at PKR K410E, less than 300 nM; on PKR R510Q, less than 300 nM; on wild type PKR [2], no more than 1000 nM.

In general, AC50 refers to the concentration giving half of the maximal activity seen.

These data come from patent US11040036B2, “Pyruvate kinase activators for use in treating blood disorders” (Agios Pharmaceuticals, Inc., priority 2017, dated 2021).
